Assay results: patent publication US20250332183A1, “COMPOSITIONS AND METHODS FOR THE STIMULATION OF INTERMEDIATE MACROPHAGES AND TREATMENTS THEREWITH” (priority 2024, published 2025)
“Also recorded” adds a separate entry of the source.

Tests used:
[1] = test system: preterm lamb model of BPD; test: Neurobehavioral assessments (curiosity, socialization, learning and memory); assay type: in vivo
Excerpt: Neurobehavioral assessments. The inventors adapted tests for curiosity, using novel objects of different colors and shapes; socialization, using a nonreflective (dull) surface versus a reflective surface (mirror); and learning and memory, using a maze with a reward.^20 These tests were adapted from other studies that assessed the neurobehavior of sheep.^20-25 Assessments were made over 2 weeks.
Habituation (open-field for exploration; days 1 and 2) was used to familiarize the lambs with the test, rest rooms, and tender. Habituation was accomplished on days 1 and 2 by a 10-minute stay in the test room, a 30-minute rest period in the rest room, and another 10-minute stay in the test room. Habituation was repeated the next day.
Tests were (1) curiosity, using novel objects; (2) socialization, using a non-reflective surface and a reflective surface; and (3) learning and memory (using a maze with a milk bottle reward). The tests were done on sequential days over two weeks. Tests were trials of 10-min each, with a 30-min rest period between trials. Each 10-min trial was video recorded, using the Noldus System (model EthoVision XT 17 with the Physiology Integration Module; Noldus Information Technology Inc., Leesburg, VA). The test room had tape on the floor that divided the floor into 9 zones for identification of movement direction and speed, inactivity, etc., in video playback. A ceiling camera recorded each test session. The camera was connected to a dedicated computer with the Noldus software to document lamb activity and time. The novel objects test required four trials on day 3. Trials 1 and 2 used two objects (brown and blue bowls) affixed to the floor. For trial 3, before the lamb was returned to the test room, the brown bowl was replaced with a novelx object (pink pitcher). For trial 4, before the lamb was returned to the test room, a new object (yellow ball) was added with the blue bowl and pink pitcher (3 objects). Analysis was the number of times and the time spent investigating each object.
The socialization test required two trials each on days 4 and 5. Two metallic surfaces were attached to a wall, one with a non-reflective and the other with a reflective surface. Analysis was the number of times and the time spent investigating each surface.
The following week, the learning and memory test required two trials on day 6. A maze made of solid metal panels was set up in the test room. A tender was in one corner of the maze, holding a bottle of milk, the reward for completing the maze. Once the tender was in place, the lamb entered the test room. Analysis was the time to reach the milk bottle reward.

[2] = test system: hPBMCs; test: Macrophage lineage in hPBMCs over 3, 7 and 10 days; assay type: cell-based, human; settings: 100 μM
[3] = test system: bronchoalveolar lavage fluid (BALf); test: Total protein (BCA) and TNF-α in lamb bronchoalveolar lavage fluid; assay type: in vivo
Excerpt: ELISA and BCA assay methods. BCA assay: The lamb BAL fluid samples (10d and 90d terminal studies) were centrifuged to remove the cell pellets, and the supernatant was used to assess the total protein using the Pierce™ BCA Protein Assay Kits, which were read using a BioTek synergy H1 microplate reader (Fisher Scientific, Toronto, ON, Canada).
ELISA: The serum and bronchoalveolar lavage (BAL) fluid samples were used to quantify cytokine and soluble CD163 (sCD163) concentrations. The ELISA experiment analysis used commercially available ELISA kits, which were quantified using a plate reader. The inventors used GraphPad Prism V. 10.4. All sheep (ovine) ELISA kits were used within the expiry dates. Ovine IL-1β(Cat #ELO-IL1β), and ovine IL-6 (Cat #ELO-IL6) ELISA kits were purchased from RayBiotech, Peachtree Corners, GA, USA, sheep IL-10 (Cat #E12817Sh-96) was purchased from Lifeome Biolabs, Oceanside, CA, sheep CD163 (cat #MBS9364870) was purchased from MyBioSource, Inc. San Diego, CA, and Pierce™ BCA Protein Assay Kit (Cat #23227) from Thermo Fischer Scientific, Rockford, IL.

[4] = efficacy dose 10 mg/kg intraperitoneal injection; read-out: Cmax in mouse pups' plasma; cited from earlier work
[5] = test system: cord blood mononuclear cells (CBMCs); test: Cytokine profile in LPS-challenged CBMCs; assay type: cell-based, human; settings: compound 100 μM + LPS 50 ng/mL vs LPS treated cells
Experimental: FIGS. 15A TO 15F show the AVR-48 cytokine profile in CBMCs. Cells treated with AVR-48 [100 μM], LPS [50 ng/mL] and AVR-48+LPS show a decrease (˜2-4-fold) in cytokine signal in (FIG. 15A) TNF-α, (FIG. 15B) IL-1β, (FIG. 15C) IL-10, (FIG. 15D) IL-12, (FIG. 15E) IL-6, and (FIG. 15F) IL-8, and indicates a reduced […] response as compared to LPS treated cells solo. N=3, One-way ANOVA was used for analysis.
CBMCs were treated with either AVR-123 [100 μM], LPS [50 ng/mL] or AVR-123+LPS for 24 h. […] (FIG. 23G) AVR-123 decreases phosphorylated NFkB alone and when combined with LPS in CBMCs via western blot analysis. N=3, One-way ANOVA.

[6] = test system: mice; test: Mouse model of influenza peptide vaccination; assay type: in vivo; settings: AVR-48 alone or with Flu-A peptide, vs MPLA
Experimental: Study design: N=4/per group ([…], 6-7 months old). Group-1: (FluA) 1st dose; No 2nd dose; Group-2: (FluA) 1st dose; (FluA+MPLA) 2nd dose; Group 3: AVR-48 1st dose; No 2nd dose; and Group 4: Flu-A 1st dose; Flu-A+AVR-48 2nd dose.
Outcome measures: immune cell quantification (FACS) in the spleen, and IgG in serum (ELISA).
In vivo study: In one study, C57Bl/6J mice (n=4/group) were dosed intramuscularly (IM) with either complete Freund's adjuvant (CFA) or incomplete Freund's adjuvant (IFA) along with AVR-48 for a 28-day study using a prime-boost-boost regimen. In the second study, mice were dosed with MPLA and Flu-peptide using only the priming dose regimen (no booster). Splenic immune cells and plasma immunoglobin concentrations were assessed at day 28.

[7] = 2 moC PNA (d90), FPT lambs vs FPT vehicle

CC(=O)NC1C(Oc2ccc([N+](=O)[O-])cc2)OC(CO)C(O)C1O (centres unmarked) [AVR-48]
curiosity and socialization outcomes (time at novel object, dull surface, mirror) ([1]; 1 moC PNA (day of life 60), among groups): No differences were detected
time at novel object (curiosity test) ([1]; 2 moC PNA (d90), FPT lambs 3.0 mg/kg/dose vs FPT vehicle): significantly less time; also recorded: significantly shorter
time at the dull surface (socialization test) [1, 7]: less time (not significant); also recorded: significantly shorter
time at the mirror (reflective surface, socialization test) [1, 7]: more time (not significant); also recorded: significantly longer
time to navigate the maze to reach the milk bottle reward (learning and memory test) [1, 7]: significantly faster; also recorded: less (not significant)
macrophage lineage ([2]; day 3 (IFN-γ high CD206 high)): highest % of intermediate macrophage
macrophage lineage ([2]; day 7 (IFN-γ low CD206 high)): polarizing to M2 phenotype
macrophage lineage ([2]; day 10 (IFN-γ high CD206 low)): finally to M1
total protein concentration in BALf ([3]; 10 days, PT lambs vs vehicle): decreased total protein concentration
total protein concentration in BALf ([3]; 90 days, FPT lambs): no difference was observed
TNF-α concentration in BALf ([3]; early and late-stage studies): No significant change
Cmax [4]: 5.7 µM
decrease in IL-1β [5]: 2-4 fold
decrease in IL-6 [5]: 2-4 fold
decrease in IL-8 [5]: 2-4 fold
decrease in IL-10 [5]: 2-4 fold
decrease in IL-12 [5]: 2-4 fold
decrease in TNF-α [5]: 2-4 fold
CD4+ T-helper cells in mouse spleen [6]: increased
CD8+ T cells in mouse spleen [6]: increased
CD19+ B cells in mouse spleen [6]: increased
CD38+/CD27+ plasma blasts in mouse spleen [6]: increased
IgG in mouse serum [6]: increased
